According to patent US6949519B2, “Macrolide solvates” (Sandoz AG, priority 2000, dated 2005):

Assays:
Format in all cases: physicochemical
[1] = Stability and comparison example: samples set out for 6 weeks at 75% relative humidity at elevated temperature; potency and degradation by HPLC, water by Karl Fischer, X-ray powder diffraction; conditions: 6 weeks under normal air humidity conditions at elevated temperatures
[2] = Water content (K. Fischer) and X-ray powder diffraction pattern at room temperature under normal air humidity conditions
Protocol: In the following examples all temperatures are in degree Centigrade and are uncorrected. The X-ray powder diffraction pattern of azithromycin in the form of a monohydrate obtained according to the following example corresponds to that of azithromycin in the form of a monohydrate. […] Water content (% w/w) is determined by the K. Fischer
To a suspension of 20 g of azithromycin in 83 ml of water, HCl is added until dissolution occurs. The solution obtained is filtrated, in order to remove undissolved particles, and the filtrate obtained is added dropwise to 103 ml of water whilst adjusting the pH to 10 to 11 by addition of 20% NaOH at a temperature of ca. 55° C. A solid precipitates, is filtrated off, washed and dried until a water content of 4.0 to 6.5% is achieved. 18.4 g of azithromycin in the form of a monohydrate in crystalline form are obtained. Water content: 6.0% Water content after 2 days at room temperature under normal air humidity conditions: 6.3% Water content after 13 days at room temperature under normal air humidity conditions: 6.3%

[3] = Stability and comparison example: samples set out for 6 weeks at 75% relative humidity at elevated temperature; potency and degradation by HPLC, water by Karl Fischer, X-ray powder diffraction; conditions: for Degradation (%) / POTENCY (%): HPLC, anhydrous basis; for POTENCY (%): 75% relative humidity, temperature of 400 (so in the source); for WATER (%): Karl Fischer
Protocol: • 5.3% of water, and • 2.8% of water are set out for 6 weeks to an environment having a relative humidity of 75% at a temperature of 400. Potency (content) of azithromycin, azithromycin degradation and water content in the samples are determined in week 0, week 2, week 4 and week 6. Potency and degradation are determined on azithromycin anhydrous basis by HPLC. The water content is determined by the Karl Fischer method. Results are Obtained • for azithromycin comprising 5.3% of water as set out in TABLE 1 below, • for azithromycin comprising 2.8% of water as set out in TABLE 2 below:
The potency of azithromycin in % of each sample within the corresponding time period is set out in TABLE 1 and TABLE 2 under “Potency (%)”.
The degradation of azithromycin in % of each sample within the corresponding time period is set out in TABLE 1 and TABLE 2 under “Degradation (%).
The water content in % of each sample within the corresponding time period is indicated in TABLE 1 and TABLE 2 under “Water (%)”.

| Degradation (%) ([3]; week 6, 75% humidity, 40° C.) | POTENCY (%) ([3]; week 0) | WATER (%) ([3]; week 0) | Degradation (%) ([3]; week 2, 75% humidity, 40° C.) | WATER (%) ([3]; week 2, 75% humidity, 40° C.) | Degradation (%) ([3]; week 4, 75% humidity, 40° C.) | WATER (%) ([3]; week 4, 75% humidity, 40° C.) | WATER (%) ([3]; week 6, 75% humidity, 40° C.) | POTENCY (%) ([3]; week 6) | SMILES | also measured |
| --- | --- | --- | --- | --- | --- | --- | --- | --- | --- | --- |
|  |  |  |  |  |  |  |  |  | CC[C@H]1OC(=O)[C@H](C)[C@@H](O[C@H]2C[C@@](C)(OC)[C@@H](O)[C@H](C)O2)[C@H](C)[C@@H](O[C@@H]2O[C@H](C)C[C@H](N(C)C)[C@H]2O)[C@](C)(O)C[C@@H](C)CN(C)[C@H](C)[C@@H](O)[C@]1(C)O [Example, 9-deoxo-9a-aza-9a-methyl-9a-homoerythromycin A] | Crystallinity and X-ray powder diffraction pattern on storage [1]: maintains its crystallinity and its X-ray powder diffraction pattern; Degradation products on storage [1]: contains substantially no degration products; Water content ([2]; after 2 days at room temperature under normal air humidity conditions): 6.3%; Water content ([2]; after 13 days at room temperature under normal air humidity conditions): 6.3%; Water content ([2]; as obtained after drying, % w/w, K. Fischer): 6.0%; X-ray diffraction powder pattern ([2]; on day 1, on day 2 and on day 13): corresponds to the X-ray diffraction powder pattern of azithromycin in the form of a monohydrate |
| ~0.1% |  |  |  |  |  |  |  |  | CC[C@H]1OC(=O)[C@H](C)[C@@H](O[C@H]2C[C@@](C)(OC)[C@@H](O)[C@H](C)O2)[C@H](C)[C@@H](O[C@@H]2O[C@H](C)C[C@H](N(C)C)[C@H]2O)[C@](C)(O)C[C@@H](C)CN(C)[C@H](C)[C@@H](O)[C@]1(C)O [azithromycin according to the present invention] [9-deoxo-9a-aza-9a-methyl-9a-homoerythromycin A] | Water content compared with week 0 ([3]; 40° C., 75% humidity, within 4 weeks and even 6 weeks): remains substantially the same as in week 0; Time for which the X-ray powder diffraction pattern (crystalline structure) is maintained ([3]; normal air humidity conditions, even at elevated temperatures): at least 2 weeks |
| 6.6% | 99.7% | 2.8% | 2.5% | 2.8% | 6.1% | 3.3% | 3.6% | 91.6% | CC[C@H]1OC(=O)[C@H](C)[C@@H](O[C@H]2C[C@@](C)(OC)[C@@H](O)[C@H](C)O2)[C@H](C)[C@@H](O[C@@H]2O[C@H](C)C[C@H](N(C)C)[C@H]2O)[C@](C)(O)C[C@@H](C)CN(C)[C@H](C)[C@@H](O)[C@]1(C)O [azithromycin comprising 2.8% of water, 9-deoxo-9a-aza-9a-methyl-9a-homoerythromycin A, reference compound] | Degradation (%) ([3]; week 2, 75% humidity, 40° C., listed as azithromycin in the form of a monohydrate having a water content of 2.8% to 3.6%): 2.5%; Degradation (%) ([3]; week 6, 75% humidity, 40° C., listed as azithromycin in the form of a monohydrate having a water content of 2.8% to 3.6%): ~7% |
| 0.1% | 99.8% | 5.3% | 0.1% | 5.3% | 0.1% | 5.3% | 5.3% | 99.5% | CC[C@H]1OC(=O)[C@H](C)[C@@H](O[C@H]2C[C@@](C)(OC)[C@@H](O)[C@H](C)O2)[C@H](C)[C@@H](O[C@@H]2O[C@H](C)C[C@H](N(C)C)[C@H]2O)[C@](C)(O)C[C@@H](C)CN(C)[C@H](C)[C@@H](O)[C@]1(C)O [azithromycin comprising 5.3% of water, 9-deoxo-9a-aza-9a-methyl-9a-homoerythromycin A] | POTENCY (%) ([3]; week 2): 98.9%; POTENCY (%) ([3]; week 4): 99.5% |
